Earlier results on one substance are cited in patent publication EP4603080A1 (Adocia, priority 2024, dated 2025).

For this data set the following is noted: read-out: EC50value; potency, WO2022129526 Assay 2, Tables 4b and 4c.

In the case of “N-alpha-[(S)-4-Carboxy-4-(19-carboxynonadecanoylamino)butyryl]-[Glu14,Arg17,Pro37]-pramlintide [cagrilintide]”, the EC50 was about 0.011 nM.
